“And” between values parts separate entries of the source, which are not always exact repeats. Equal values may be shown once.
Tested on: 966289-007-R4-J1-PDC complex spheroid viability
Assay: Anticancer human tumor 966289-007-R4-J1-PDC patient-derived pancreatic adenocarcinoma cell line growth inhibition [GQUAD]
Settings: for viability, T/C: stronger effect = lower value
Excerpt: DNA G-quadruplex Stabilizer Agents in Combinations in Complex Spheroids
A high-throughput screen of multi-cell type tumor spheroids was designed to identify active combinations of DNA G-quadruplex stabilizer agents and targeted small molecules. Complex spheroids include a stromal component modeled by human endothelial cells (HUVEC) and fibroblasts modeled by human mesenchymal stem cells (MSCs). The concentration ranges selected for each drug and investigational agent were based upon clinically achievable concentrations if the clinical Cmax of the agent was known.
Compounds. The drugs and investigational agents: pidnarulex (CX-5461; NSC782164), APTO-253 (NSC789042), BRACO-19 (NSC847499), peposertib (NSC802822), ceralasertib (NSC780249), elimusertib (NSC800525), camonsertib (NSC841442), AZD-1390 (NSC803789), olaparib (NSC753686), talazoparib (NSC767125), ART-558 (NSC835418), sotorasib (NSC818433), MRTX-1133 (NSC836407), SN-38 (NSC673596), topotecan (NSC609699), etoposide (NSC141540), doxorubicin (NSC123127), gemcitabine (NSC613327), 5-fluorouracil (NSC19893), paclitaxel (NSC125973), vemurafenib (NSC761431), panobinostat (NSC761190), R-306465 (JNJ-16241199; NSC773264), adavosertib (NSC754352), TP-3654 (NSC805149), carboplatin (NSC241240), KSQ-4279 (NSC840948), and staurosporine (NSC755774) were obtained from the National Cancer Institute (NCI) Developmental Therapeutics Program Chemical Repository (34). The FDA-approved anticancer drug set is available from the NCI Developmental Therapeutics Program. […] The stock solutions were prepared in dimethyl sulfoxide (DMSO, Sigma-Aldrich, St. Louis, MO, cat. D2650) at 800-fold the tested concentration and stored at -70 degrees C prior to their use. All drugs and investigational agents were tested over a range starting from a high concentration at or near the clinical Cmax and decreasing in half-log increments. If the clinical Cmax for an agent had not been determined, the highest concentration tested was 10 microM.
2.3 Cell Culture. All cells were maintained in an incubator at 37 degrees C and 5% CO2 with 95% humidity. The PDC lines were cultured according to standard operating procedures established by the NCI PDMR. All PDCs were thawed and cultured in Matrigel-coated flasks prepared with a working solution of 1X Ham's F-12 nutrient mix, without supplementation (Invitrogen, cat. 11765054), 100 U/mL penicillin-streptomycin (Invitrogen, cat. 15140122), and 2.5% Matrigel (Corning Inc., cat. 354248) for the first three passages. The 857933-349-R-J2-PDC line was cultured in 6C/Colon 1B media, which includes advanced DMEM/F-12 (Thermo Fisher Scientific, cat. 12634028), 10 mM HEPES (Thermo Fisher Scientific, cat. 15630080), 1X GlutaMAX supplement (Thermo Fisher Scientific, cat. 35050061), 0.1 mg/mL primocin (InvivoGen, cat. ant-pm-2), 10% defined fetal bovine serum, heat inactivated (HyClone Laboratories Inc., cat. SH30070.03HI), 50% L-WRN conditioned media (ATCC, cat. CRL-3276), 1.25 mM N-Acetyl-L-cysteine (Sigma-Aldrich, cat. A9165), 10 mM nicotinamide (Sigma-Aldrich, cat. N0636), 1X B-27 supplement (Thermo Fisher Scientific, cat. 17504044), 1X N-2 supplement (Thermo Fisher Scientific, cat. 17502048), 10 microM Y-27632 dihydrochloride (Tocris Bioscience, cat. 1254), and 50 ng/mL human EGF recombinant protein (Thermo Fisher Scientific, cat. PHG0311). The 485176-168-R4-J1-PDC line was cultured in Panc media, which includes all 6C/Colon 1B media components plus 100 ng/mL human FGF-10 (Thermo Fisher Scientific, cat. 100-26), 500 nM SB-431542 (Selleckchem, cat. S1067), and gastrin (Tocris, cat. 3006).
[…]
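Note: spheroids exposed to the agents for seven days before readout.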
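Throughout, for viability, T/C: percent viability relative to DMSO vehicle control wells taken as 100%.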

Compound	viability, T/C (compound 0.0316 µM)	viability, T/C (compound 0.1 µM)	viability, T/C (compound 0.316 µM)	viability, T/C (compound 1 µM)	viability, T/C (compound 3.16 µM)	viability, T/C (compound 10 µM)	IC50 (curve of compound)	viability, T/C (compound 0.000999 µM)	viability, T/C (compound 0.00316 µM)	viability, T/C (compound 0.00999 µM)	viability, T/C (compound 0.0999 µM)	IC50 (compound alone, run of 03/26/2024) [nM]
C#Cc1c(F)ccc2cc(O)cc(-c3ncc4c(N5CC6CCC(C5)N6)nc(OCC56CCCN5CC(F)C6)nc4c3F)c12 (stereo unspecified)	97.1% and 95.7%	112% and 91.4%	104% and 100%	102% and 97.3%	108% and 98.6%	113% and 95.9%	> 10000 nM					
C=CC(=O)N1CCN(c2nc(=O)n(-c3c(C)ccnc3C(C)C)c3nc(-c4c(O)cccc4F)c(F)cc23)C(C)C1 (stereo unspecified)	102% (2×) and 99.4%	102% and 99.7% and 98.1%	104% and 94.3% and 95.7%	90% and 101% and 75.8%	97.5% and 106% and 100%	110% and 108% and 116%	> 10000 nM					
C=CCn1c(=O)c2cnc(Nc3ccc(N4CCN(C)CC4)cc3)nc2n1-c1cccc(C(C)(C)O)n1	102% and 99.9% and 97.9%	105% and 97.2% and 108%	110% and 113% and 120%	101% and 105% and 81.8%	4.65% and 8.05% and 2.6%	1.72% and 1.84% and 1.48%	1840 nM and 1910 nM and 1580 nM					
CC(=O)O[C@H]1C(=O)[C@@]2(C)[C@H]([C@H](OC(=O)c3ccccc3)[C@]3(O)C[C@H](OC(=O)[C@H](O)[C@@H](NC(=O)c4ccccc4)c4ccccc4)C(C)=C1C3(C)C)[C@]1(OC(C)=O)CO[C@@H]1C[C@@H]2O	5.97% and 4.08%	3.17% and 2.51%	4.33% and 3.04%	6.75% and 5.13%	9.64% and 6.14%	14.1% and 8.4%	< 31.6 nM					
CC(C)(O)C1CCC(Nc2ccc3ncc(-c4cccc(C(F)(F)F)c4)n3n2)CC1 (stereo unspecified)	105% and 92.3% and 96.8%	100% and 95.3% and 106%	98.5% and 95.1% and 91.2%	93.8% and 90.5% and 107%	42.9% and 43.5% and 36.2%	75.9% and 49.8% and 33.1%	> 10000 nM and 2890 nM and 2470 nM					
CC(C)n1c(=O)n(C)c2cnc3cc(F)c(-c4ccc(OCCCN5CCCCC5)nc4)cc3c21	101% and 103% and 95.4%	103% and 106% (2×)	114% and 106% and 102%	107% and 105% and 114%	107% (2×) and 116%	86% and 88.6% and 91.8%	> 10000 nM					
CC1COCCN1c1cc(-c2ccnn2C)c2ccnc(-c3ccn[nH]3)c2n1 (stereo unspecified)	112% and 106% and 104%	75.1% and 95% and 82.1%	15.9% and 32.8% and 16.8%	6.65% and 12.3% and 6.94%	4.32% and 6.18% and 4.41%	3.06% and 4.67% and 3.7%	163 nM and 231 nM and 176 nM					
CC1COCCN1c1cc(C2(O)CC3CCC(C2)O3)c2cnn(-c3ccn[nH]3)c2n1 (stereo unspecified)	112% and 111% and 109%	64.2% and 55% and 74.8%	16.3% and 13.5% and 20.4%	5.75% and 6.02% and 11.2%	4.81% and 4.92% and 6.7%	4.35% and 4.17% and 5.99%	141 nM and 115 nM and 170 nM					
CC1COCCN1c1cc(C2(S(C)(=N)=O)CC2)nc(-c2ccnc3[nH]ccc23)n1 (stereo unspecified)	105% and 101% and 96.9%	104% and 98.3% and 105%	109% and 99.3% and 108%	95.2% and 103% and 108%	45.6% and 71.7% and 117%	6.26% and 10.7% and 7.26%	2850 nM and 4770 nM and 6110 nM					
CCCS(=O)(=O)Nc1ccc(F)c(C(=O)c2c[nH]c3ncc(-c4ccc(Cl)cc4)cc23)c1F	109% and 105% and 99.4%	102% and 96% and 99.5%	111% (2×) and 97.8%	110% and 106% and 114%	114% (2×) and 108%	37.5% and 36.5% and 38%	8170 nM and 7890 nM and 8200 nM					
CC[C@@]1(O)C(=O)OCc2c1cc1n(c2=O)Cc2cc3c(CN(C)C)c(O)ccc3nc2-1	74.9% and 90.5% and 50.4%		0.62% and 0.47% and 0.41%				46.5 nM and 53.5 nM and 31.9 nM	88.3% and 105% and 97.2%	92.3% and 95.7% and 100%	108% and 105% and 110%	0.78% and 1.86% and 0.73%	
CCc1c2c(nc3ccc(O)cc13)-c1cc3c(c(=O)n1C2)COC(=O)[C@]3(O)CC	0.8% and 0.6% and 0.43%		0.45% and 0.44% and 0.36%				< 0.999 nM	21.8% and 23.1% and 26.9%	0.79% and 0.89% and 0.66%	0.67% and 0.66% and 0.5%	0.53% and 0.49% and 0.38%	
CN(C)c1ccc(Nc2c3ccc(NC(=O)CCN4CCCC4)cc3nc3cc(NC(=O)CCN4CCCC4)ccc23)cc1	104% [middle of 12 runs]	107% [middle of 12 runs]	108% [middle of 11 runs]	108% [middle of 12 runs]	98.7% [middle of 12 runs]	99.8% [middle of 12 runs]						> 10000
